Measured values as given in patent US11903386B2, “Strigolactone analogs and their usage in plant control” (King Abdullah University of Science and Technology, priority 2016, dated 2024).
Entries after “also recorded” stand apart in the source; their conditions may differ.

Tested on: P. ramosa seeds
Assay: P. ramosa seed germination bioassay
Assay type: in vivo
Details: 1.0 μM
Description: Parasitic weed seeds (S. hermonthica and P. ramosa) germination activity was recorded as described previously (Jamil et al., 2012). Six pre-conditioned seed discs were placed in a 90 mm petri-dish containing a filter paper ring wetted with 0.9 ml sterile MilliQ water. […] GR24 solutions with equal concentrations and sterile MilliQ water were included as a positive and negative control, respectively. After application, seeds were incubated at 30° C./25° C. in the dark for two days. Germination (seeds with radical emerging through seed coat) was scored under a binocular microscope, and germination rate (%) was calculated.

Structure (SMILES): COC(=O)/C(=C/OC1C=C(C)C(=O)O1)c1ccc([N+](=O)[O-])cc1 (racemic) [MP1, (E)-methyl 3-(4-methyl-5-oxo-2,5-dihydrofuran-2-yloxy)-2-(4-nitrophenyl)acrylate]
- P. ramosa seed germination activity: much higher activity; also recorded: quite similar to that of GR24
